The values below come from ChEMBL document CHEMBL1148590, “Design and synthesis of 3,4-dihydro-1H-[1]-benzothieno[2,3-c]pyran and 3,4-dihydro-1H-pyrano[3,4-b]benzofuran derivatives as non-nucleoside inhibitors of HCV NS5B RNA dependent RNA polymerase” (Bioorg Med Chem Lett, 2006).

Assay [1] has as its target RNA-directed RNA polymerase (Hepacivirus hominis, UniProt O39930). Kind of assay: Displacement of [alpha-32P]GTP from recombinant HCV NS5B RNA dependent RNA polymerase.
A further assay addresses NS3 (Hepatitis C virus, UniProt A3EZJ3). Kind of assay: Inhibition of HCV NS3 helicase. Further details: species or system Hepacivirus hominis.
The subject of another assay is Huh-7. Kind of assay: Cytotoxicity against Huh7 cells by MTS metabolic assay. As to conditions: Homo sapiens. Format: functional, cell-based. (In general: Formazan colour is commonly taken as a measure of viable cells.)
Assay [2] deals with T1, DNA polymerase subunit gamma-1 (Homo sapiens) (UniProt P54098).
T1 sequence (whole entry): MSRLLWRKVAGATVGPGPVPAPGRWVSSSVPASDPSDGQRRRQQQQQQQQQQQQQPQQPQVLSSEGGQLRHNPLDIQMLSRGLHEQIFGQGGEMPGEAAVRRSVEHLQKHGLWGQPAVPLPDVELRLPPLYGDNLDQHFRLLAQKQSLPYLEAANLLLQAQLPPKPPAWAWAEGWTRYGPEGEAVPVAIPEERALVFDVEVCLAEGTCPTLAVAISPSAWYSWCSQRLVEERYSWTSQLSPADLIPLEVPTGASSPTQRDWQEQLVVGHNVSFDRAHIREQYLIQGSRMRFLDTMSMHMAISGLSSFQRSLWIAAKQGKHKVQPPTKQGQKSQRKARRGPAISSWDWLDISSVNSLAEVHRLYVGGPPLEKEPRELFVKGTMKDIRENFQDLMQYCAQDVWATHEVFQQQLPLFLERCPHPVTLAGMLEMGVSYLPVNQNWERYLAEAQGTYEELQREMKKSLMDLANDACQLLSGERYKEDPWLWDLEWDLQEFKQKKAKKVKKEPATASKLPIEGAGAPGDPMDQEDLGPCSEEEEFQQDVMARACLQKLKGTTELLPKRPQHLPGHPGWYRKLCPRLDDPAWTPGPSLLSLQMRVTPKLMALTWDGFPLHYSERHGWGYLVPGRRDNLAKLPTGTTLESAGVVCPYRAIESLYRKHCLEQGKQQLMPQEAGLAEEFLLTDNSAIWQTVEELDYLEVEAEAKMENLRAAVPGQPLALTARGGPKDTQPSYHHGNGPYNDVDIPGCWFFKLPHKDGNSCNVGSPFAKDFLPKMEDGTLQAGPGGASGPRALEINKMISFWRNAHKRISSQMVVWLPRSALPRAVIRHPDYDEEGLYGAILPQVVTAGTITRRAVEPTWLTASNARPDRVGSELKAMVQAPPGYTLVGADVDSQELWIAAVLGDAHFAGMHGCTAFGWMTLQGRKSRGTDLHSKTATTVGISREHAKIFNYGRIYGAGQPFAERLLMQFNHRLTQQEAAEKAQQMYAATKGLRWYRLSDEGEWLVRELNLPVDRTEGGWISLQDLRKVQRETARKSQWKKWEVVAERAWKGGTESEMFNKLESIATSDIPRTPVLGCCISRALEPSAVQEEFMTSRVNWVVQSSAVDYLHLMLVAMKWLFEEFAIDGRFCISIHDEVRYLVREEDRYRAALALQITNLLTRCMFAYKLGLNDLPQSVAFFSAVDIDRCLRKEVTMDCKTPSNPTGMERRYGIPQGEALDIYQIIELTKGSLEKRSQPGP
Kind of assay: Inhibitory activity against human mitochondrial DNA polymerase gamma upto 50 uM.

The subject of a further assay is Vero. As to the kind of experiment: Cytotoxicity against vero cells by MTS metabolic assay. It counts as functional, cell-based. Conditions: Chlorocebus sabaeus.
Assay [3] deals with Human immunodeficiency virus type 1 reverse transcriptase (Human immunodeficiency virus 1, UniProt Q72547). As to the kind of experiment: Inhibition of HIV reverse transcriptase.

SMILES strings stand for the structures. pIC50: −log10 of the molar value. Active and inactive are the calls of the source. The rule behind the calls is not given here.

RNA-directed RNA polymerase, sequence (O39930 whole entry): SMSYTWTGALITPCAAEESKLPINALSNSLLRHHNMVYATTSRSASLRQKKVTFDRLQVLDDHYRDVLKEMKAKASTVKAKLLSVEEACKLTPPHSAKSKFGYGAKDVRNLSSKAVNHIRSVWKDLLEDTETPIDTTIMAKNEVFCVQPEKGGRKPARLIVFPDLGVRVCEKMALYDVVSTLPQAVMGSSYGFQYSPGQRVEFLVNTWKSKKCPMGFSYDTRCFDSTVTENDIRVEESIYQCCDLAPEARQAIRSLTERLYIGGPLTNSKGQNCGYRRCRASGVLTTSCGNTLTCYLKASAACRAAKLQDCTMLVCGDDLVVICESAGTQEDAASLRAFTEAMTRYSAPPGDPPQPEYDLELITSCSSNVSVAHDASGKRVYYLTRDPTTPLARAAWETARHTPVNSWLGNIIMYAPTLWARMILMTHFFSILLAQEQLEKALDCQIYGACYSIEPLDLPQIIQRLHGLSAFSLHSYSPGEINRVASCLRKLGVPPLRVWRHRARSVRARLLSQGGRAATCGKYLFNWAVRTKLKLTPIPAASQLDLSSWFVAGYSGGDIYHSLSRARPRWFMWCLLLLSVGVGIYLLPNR
NS3, sequence (A3EZJ3 whole entry): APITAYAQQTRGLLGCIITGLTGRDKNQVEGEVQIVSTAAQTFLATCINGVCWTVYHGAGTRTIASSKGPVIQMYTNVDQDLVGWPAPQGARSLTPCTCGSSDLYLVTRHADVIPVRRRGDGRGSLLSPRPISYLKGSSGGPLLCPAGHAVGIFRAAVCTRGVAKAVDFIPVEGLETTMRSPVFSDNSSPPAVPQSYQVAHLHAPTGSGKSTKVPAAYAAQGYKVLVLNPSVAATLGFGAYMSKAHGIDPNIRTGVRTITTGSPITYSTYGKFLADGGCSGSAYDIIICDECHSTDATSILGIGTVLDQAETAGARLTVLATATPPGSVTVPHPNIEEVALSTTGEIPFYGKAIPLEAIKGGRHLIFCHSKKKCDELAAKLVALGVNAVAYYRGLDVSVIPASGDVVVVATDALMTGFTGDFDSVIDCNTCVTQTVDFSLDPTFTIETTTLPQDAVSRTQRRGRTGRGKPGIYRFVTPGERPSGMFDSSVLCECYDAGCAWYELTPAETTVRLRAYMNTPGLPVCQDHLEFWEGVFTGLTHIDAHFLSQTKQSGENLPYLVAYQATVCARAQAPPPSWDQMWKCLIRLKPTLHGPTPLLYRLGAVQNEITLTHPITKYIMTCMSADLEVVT

Broadly, the pIC50 is the negative decadic logarithm of the IC50, by convention in mol/L. On to `CCC1(CC(=O)O)OCCc2c1sc1c(Cl)ccc(Cl)c21` (stereo not drawn), for which the pIC50 in assay [1] is 5.72.
Same read-out and setting: under `CC1(CC(=O)O)OCCc2c1sc1c(Cl)ccc(Cl)c21` (stereo not drawn) stands 4.75; under `CCC1(CC(=O)O)OCCc2c1oc1c(Cl)ccc(Cl)c21` (stereo not drawn), 4.79.
On to `CCC[C@]1(CC(=O)O)OCCc2c1sc1c(C)cc(F)c(C#N)c21`, for which the pIC50 against NS3 is under 4.12; in the assay on Huh-7 it was under 4.12; in the assay with Vero it was under 4.12; in assay [1], 7.30; in assay [3] it was under 4.00. In addition, in assay [2], the outcome was inactive.
In the case of `CCCC1(CC(=O)O)OCCc2c1oc1c(Cl)ccc(Cl)c21` (stereo not drawn), the pIC50 in assay [1] was 5.83.
For `CC1(CC(=O)O)OCCc2c1oc1c(Cl)ccc(Cl)c21` (stereo not drawn), in assay [1], the pIC50 is under 4.70.
The same measure, in the same setting: then `CCCC1(CC(=O)O)OCCc2c1sc1c(Cl)ccc(Cl)c21` (stereo not drawn), with 6.85.
On to `CCC[C@@]1(CC(=O)O)OCCc2c1sc1c(C)cc(F)c(C#N)c21`, for which, in assay [1], the pIC50 is 5.27.
In the case of `CCCCC1(CC(=O)O)OCCc2c1sc1c(Cl)ccc(Cl)c21` (stereo not drawn), in assay [1], the pIC50 was 6.12.
The same measure, in the same setting: then `CCC[C@@]1(CC(=O)O)OCCc2c1sc1c(C)ccc(C#N)c21`, with 5.55; and `CCCC1(CC(=O)O)OCCc2c1sc1ccccc21` (stereo not drawn), with under 4.70; and `CCCC1(CC(=O)O)OCCc2c1sc1c(C)cc(F)cc21` (stereo not drawn), with under 4.70.
On to `CCCC1(CC(=O)O)OCCc2c1oc1ccccc21` (stereo not drawn), for which the pIC50 in assay [1] was under 4.70.
As to `CCCC1(CC(=O)O)OCCc2c1sc1c(C)ccc(Br)c21` (stereo not drawn), the pIC50 in assay [1] is 6.72.
`CCCC1(CC(=O)O)OCCc2c1sc1c(C)ccc(C#N)c21` (stereo not drawn): the pIC50 in assay [1] is 6.49.
Consider `CCCC1(CC(=O)O)OCCc2c1sc1c(C)cc(F)c(C#N)c21` (stereo not drawn), for which the pIC50 in assay [1] was 6.89.
On to `CCCCC1(CC(=O)O)OCCc2c1oc1c(Cl)ccc(Cl)c21` (stereo not drawn), for which the pIC50 in assay [1] is 5.35.
In the case of `CCC[C@]1(CC(=O)O)OCCc2c1sc1c(C)ccc(C#N)c21`, the pIC50 in assay [1] was 6.77.
